According to patent US20160264593A1 (priority 2013, published 2016):
Where two headings read alike, the source gives them in different places.

Test: Pharmacokinetic study of 153 (and metabolite endothal) in SD rats, iv and po; plasma, liver, brain
Format: in vivo
Conditions: for MRT last: read-out: MRT (0-t); for half-life: read-out: T1/2 (converted); for Tmax: read-out: Tmax
Method: The blood, liver and brain tissue samples were collected at predetermined times from rats. […] Compound were diluted shortly before use in 4% sodium bicarbonate for sterile injection (this is the standard pediatric solution of NaHCO3 with a pH of about 8.5).
Compound 153 was freshly prepared by diluting the drugs shortly before use in 4% sodium bicarbonate for sterile injection (this is the standard pediatric solution of NaHCO3 with a pH of about 8.5). The final concentrations of 153 solutions were 0.25 mg/mL. The 153 solutions were administered via iv or po route at dose volume of 5 ml/kg according to the latest body weight. Compound 157 was freshly prepared by diluting the drugs shortly before use in 4% sodium bicarbonate for sterile injection (this is the standard pediatric solution of NaHCO3 with a pH of about 8.5). The final concentrations of […] solutions were 0.3 mg/mL. The 157 solutions were administered via iv or po route at dose volume of 5 ml/kg according to the latest body weight.
Twelve (12) female SD rats per group were dosed by iv with 153 or 157. The rats were fasted overnight prior to dosing, with free access to water. Foods were withheld for 2 hours post-dose. Blood, liver and brain tissue samples in two animals each group were collected at each time point, within 10% of the scheduled time for each time point. Two extra animals were used for analytic method development.
Blood (>0.3 mL) were collected via aorta abdominalis in anaesthetic animals into tubes containing heparin at 15 min, 1, 2, 6, 10 and 24 hours after iv administration. Liver and brain tissues were collected immediately after animal death. The liver and brain tissues were excised and rinsed with cold saline to avoid blood residual. Upon collection, each sample was placed on ice and the blood samples were subsequently centrifuged (4° C., 11000 rpm, 5 min) to separate plasma. The obtained plasma, liver and brain tissue samples were stored at −70° C. until LC-MS/MS analysis.
Two (2) female SD rats per group were dosed by po with 153 or 157. The rats were fasted overnight prior to dosing, with free access to water. Foods were withheld for 2 hours post-dose. Blood samples (>0.3 mL) were collected via aorta abdominalis in anaesthetic animals into tubes containing heparin at 30 min, 1, 2, 6, 10 and 24 hours after po administration.
To each sample, 20 μL IS-D (for blank samples, 20 μL acetonitrile:water (1:1) was added) and 300 μl acetonitrile was added. The sample mixture was vortexed for approximately 3 min. After centrifugation at 10000 rpm for 5 min at 4° C., 100 μL of the upper layer was transferred to a new tube and added 200 μL 0.4% formic acid in water (pH 6.0). The mixture was vortexed for approximately 3 min before injected onto the LC/MS/MS system for analysis.
On the day of the assay, the frozen liver and brain samples were thawed unassisted at room temperature. An about 200 mg weighed sample of each thawed tissue was placed into a plastic tube with water (0.6 mL) to facilitate homogenization. Tissue processing was conducted using a homogenizer for approximately 1 min, 200 μl homogenate was transferred into a fresh Eppendorf tube. To each tube, 50 μL IS-D was added and mixed. Then 600 μl acetonitrile was added and the sample mixture was vortexed for approximately 3 min. After centrifugation at 10000 rpm for 5 min at 4° C., 400 μL of the upper layer was transferred to a new tube and evaporate the supernatant to dryness at 35° C. Reconstitute the residue with 200 μL of 0.4% formic acid in water (pH6.0), and vortex for 3 min, submit for LC-MS/MS analysis.
Frozen unknown plasma samples were completely thawed at room temperature and vortexed thoroughly. With a pipette, 50 μL of plasma was transferred into a 2.0 mL Eppendorf tube. 50 μL of 0.1N HCl and 800 μL ethyl acetate were added into each sample. The sample mixture was vortexed for approximately 3 min.

[1] = female, SD, rat, in vivo, iv, 1.25 mg/kg, iv 1.25 mg/kg, Mean, read-out: 153 liver concentration
[2] = female, SD, rat, in vivo, iv, 1.25 mg/kg, iv 1.25 mg/kg, Mean, read-out: 153 plasma concentration
[3] = female, SD, rat, in vivo, iv, 1.25 mg/kg, iv 1.25 mg/kg, Rat 1, read-out: 153 brain concentration
[4] = female, SD, rat, in vivo, iv, 1.25 mg/kg, iv 1.25 mg/kg, Rat 1, read-out: 153 liver concentration
[5] = female, SD, rat, in vivo, iv, 1.25 mg/kg, iv 1.25 mg/kg, Rat 1, read-out: 153 plasma concentration
[6] = female, SD, rat, in vivo, iv, 1.25 mg/kg, iv 1.25 mg/kg, Rat 2, read-out: 153 brain concentration
[7] = female, SD, rat, in vivo, iv, 1.25 mg/kg, iv 1.25 mg/kg, Rat 2, read-out: 153 liver concentration
[8] = female, SD, rat, in vivo, iv, 1.25 mg/kg, iv 1.25 mg/kg, Rat 2, read-out: 153 plasma concentration
[9] = female, SD, rat, in vivo, po, 1.25 mg/kg, 153 in plasma, PO 1.25 mg/kg, Mean
[10] = female, SD, rat, in vivo, po, 1.25 mg/kg, 153 in plasma, PO 1.25 mg/kg, rat 1
[11] = female, SD, rat, in vivo, po, 1.25 mg/kg, 153 in plasma, PO 1.25 mg/kg, rat 2
[12] = female, SD, rat, in vivo, po, 1.25 mg/kg, PO per title, 1.25 mg/kg, Mean, read-out: 153 liver concentration
[13] = female, SD, rat, in vivo, po, 1.25 mg/kg, PO per title, 1.25 mg/kg, Rat 2, read-out: 153 liver concentration
[14] = female, Sprague-Dawley (SD), rat, in vivo, iv, 1.25 mg/kg, Brain, 1.25 mg/kg IV, Mean
[15] = female, Sprague-Dawley (SD), rat, in vivo, iv, 1.25 mg/kg, Brain, 1.25 mg/kg IV, rat 1
[16] = female, Sprague-Dawley (SD), rat, in vivo, iv, 1.25 mg/kg, Brain, 1.25 mg/kg IV, rat 2
[17] = female, Sprague-Dawley (SD), rat, in vivo, iv, 1.25 mg/kg, Liver, 1.25 mg/kg IV, Mean
[18] = female, Sprague-Dawley, rat, in vivo, po, 1.25 mg/kg, PO per title, 1.25 mg/kg, Rat 1, read-out: 153 liver concentration

CCCOC(=O)C1C2CCC(O2)C1C(=O)N1CCN(C)CC1 (stereo not shown) [Compound 153, 3-(4-Methylpiperazine-1-carbonyl)-7-oxa-bicyclo[2,2,1]heptane-2-carboxylic acid propyl ester]
concentration at 1 h [1]: 126 ng/g | concentration at 1 h [2]: 54.7 ng/mL | concentration at 1 h [3]: 13.9 ng/g | concentration at 1 h [4]: 131 ng/g | concentration at 1 h [5]: 58 ng/mL | concentration at 1 h [6]: 14.3 ng/g | concentration at 1 h [7]: 121 ng/g | concentration at 1 h [8]: 51.4 ng/mL | concentration at 2 h (female, SD, rat, in vivo, iv, 1.25 mg/kg, iv 1.25 mg/kg, Mean, read-out: 153 brain concentration): 4.4 ng/g | concentration at 2 h [1]: 41.6 ng/g | concentration at 2 h [2]: 13.9 ng/mL | concentration at 2 h [3]: 4.05 ng/g | concentration at 2 h [4]: 42 ng/g | concentration at 2 h [5]: 14.8 ng/mL | concentration at 2 h [6]: 4.75 ng/g | concentration at 2 h [7]: 41.2 ng/g | concentration at 2 h [8]: 13 ng/mL | concentration at 6 h (female, SD, rat, in vivo, iv, 1.25 mg/kg, iv 1.25 mg/kg, 6 hr, Mean): 1.03 ng/mL | concentration at 6 h (female, SD, rat, in vivo, iv, 1.25 mg/kg, iv 1.25 mg/kg, 6 hr, Rat 1): 1.04 ng/mL | concentration at 6 h (female, SD, rat, in vivo, iv, 1.25 mg/kg, iv 1.25 mg/kg, 6 hr, Rat 2): 1.02 ng/mL | concentration at 10 h (female, SD, rat, in vivo, iv, 1.25 mg/kg, iv 1.25 mg/kg, 10 hr, Rat 2, abnormal, not included in the calculation): 9.42 ng/mL | MRT last [9]: 60.6 min | half-life [9]: 20.6 min | AUC(0-inf) [10]: 163 ng·h/mL | AUC (female, SD, rat, in vivo, po, 1.25 mg/kg, 153 in plasma, PO 1.25 mg/kg, rat 1, read-out: AUC): 163 ng·h/mL | Cmax (female, SD, rat, in vivo, po, 1.25 mg/kg, 153 in plasma, PO 1.25 mg/kg, rat 1, read-out: Cmax): 249 ng/mL | MRT last [10]: 59.2 min | half-life [10]: 19.8 min | AUC(0-inf) [11]: 164 ng·h/mL | AUC (female, SD, rat, in vivo, po, 1.25 mg/kg, 153 in plasma, PO 1.25 mg/kg, rat 2, read-out: AUC): 164 ng·h/mL | Cmax (female, SD, rat, in vivo, po, 1.25 mg/kg, 153 in plasma, PO 1.25 mg/kg, rat 2, read-out: Cmax): 229 ng/mL | MRT last [11]: 62.4 min | half-life [11]: 21.3 min | AUC (female, SD, rat, in vivo, po, 1.25 mg/kg, 153 po 1.25 mg/kg, read-out: AUC of 153 in plasma): 164 ng·h/mL | Cmax (female, SD, rat, in vivo, po, 1.25 mg/kg, 153 po 1.25 mg/kg, read-out: Cmax of 153 in plasma): 239 ng/mL | concentration at 0.25 h [12]: 762 ng/g | concentration at 0.25 h [13]: 652 ng/g | concentration at 1 h [12]: 126 ng/g | concentration at 1 h (female, SD, rat, in vivo, po, 1.25 mg/kg, PO per title, 1.25 mg/kg, Rat 1, read-out: 153 liver concentration): 131 ng/g | concentration at 1 h [13]: 121 ng/g | AUC(0-t) (female, SD, rat, in vivo, 153 iv 1.25 mg/kg, read-out: AUClast of 153 in plasma): 295 ng·h/mL | bioavailability (female, SD, rat, in vivo, 153 po vs iv 1.25 mg/kg, read-out: BA (bioavailability) of 153): 55.4% | Cmax (female, Sprague-Dawley (SD), rat, in vivo, iv, 1.25 mg/kg, Brain, 1.25 mg/kg IV, Mean, read-out: Cmax): 42.7 ng/g | MRT last [14]: 58.3 min | half-life [14]: 35.8 min | Cmax (female, Sprague-Dawley (SD), rat, in vivo, iv, 1.25 mg/kg, Brain, 1.25 mg/kg IV, rat 1, read-out: Cmax): 45 ng/g | MRT last [15]: 56 min | half-life [15]: 33.7 min | Cmax (female, Sprague-Dawley (SD), rat, in vivo, iv, 1.25 mg/kg, Brain, 1.25 mg/kg IV, rat 2, read-out: Cmax): 40.3 ng/g | MRT last [16]: 60.6 min | half-life [16]: 37.7 min | Cmax (female, Sprague-Dawley (SD), rat, in vivo, iv, 1.25 mg/kg, Liver, 1.25 mg/kg IV, Mean, read-out: Cmax): 762 ng/g | MRT last [17]: 47.1 min | half-life [17]: 37.6 min | half-life (female, Sprague-Dawley (SD), rat, in vivo, iv, 1.25 mg/kg, Liver, 1.25 mg/kg IV, rat 2): 38.6 min | AUC(0-inf) (female, Sprague-Dawley (SD), rat, in vivo, po, 1.25 mg/kg, 153 in plasma, PO 1.25 mg/kg, Mean): 164 ng·h/mL | AUC (female, Sprague-Dawley (SD), rat, in vivo, po, 1.25 mg/kg, 153 in plasma, PO 1.25 mg/kg, Mean, read-out: AUC): 164 ng·h/mL | Cmax (female, Sprague-Dawley (SD), rat, in vivo, po, 1.25 mg/kg, 153 in plasma, PO 1.25 mg/kg, Mean, read-out: Cmax): 239 ng/mL | Tmax (female, Sprague-Dawley (SD), rat, in vivo, 153 in plasma, PO 1.25 mg/kg, Mean): 30 min | Tmax (female, Sprague-Dawley (SD), rat, in vivo, Liver, 1.25 mg/kg IV, Mean): 15 min | concentration at 0.25 h [18]: 872 ng/g | concentration at 2 h (female, Sprague-Dawley, rat, in vivo, po, 1.25 mg/kg, PO per title, 1.25 mg/kg, Mean, read-out: 153 liver concentration): 41.6 ng/g | concentration at 2 h [18]: 42 ng/g | concentration at 2 h (female, Sprague-Dawley, rat, in vivo, po, 1.25 mg/kg, PO per title, 1.25 mg/kg, Rat 2, read-out: 153 liver concentration): 41.2 ng/g | 153 liver concentration (iv 1.25 mg/kg, 6 hr, Rat 1): BLQ | 153 liver concentration (iv 1.25 mg/kg, 6 hr, Rat 2): BLQ | 153 liver concentration (iv 1.25 mg/kg, 10 hr, Rat 1): BLQ
